Assay results: patent US20240116985A1, “STAPLED PEPTIDES AND METHODS THEREOF” (priority 2020, published 2024)

What follows are molecules tested against T1, full-length beta-Catenin (Uniprot ID P35222) (Homo sapiens, UniProt P35222) (assay: Fluorescence polarization IC50 (beta-catenin / 5FAM-TCF4 10-53 competition)). Conditions: fluorescence polarization; read-out: beta-Catenin FP IC50.
T1 construct: 10 nM full-length beta-Catenin (Uniprot ID P35222)
T1 sequence (P35222 1-781): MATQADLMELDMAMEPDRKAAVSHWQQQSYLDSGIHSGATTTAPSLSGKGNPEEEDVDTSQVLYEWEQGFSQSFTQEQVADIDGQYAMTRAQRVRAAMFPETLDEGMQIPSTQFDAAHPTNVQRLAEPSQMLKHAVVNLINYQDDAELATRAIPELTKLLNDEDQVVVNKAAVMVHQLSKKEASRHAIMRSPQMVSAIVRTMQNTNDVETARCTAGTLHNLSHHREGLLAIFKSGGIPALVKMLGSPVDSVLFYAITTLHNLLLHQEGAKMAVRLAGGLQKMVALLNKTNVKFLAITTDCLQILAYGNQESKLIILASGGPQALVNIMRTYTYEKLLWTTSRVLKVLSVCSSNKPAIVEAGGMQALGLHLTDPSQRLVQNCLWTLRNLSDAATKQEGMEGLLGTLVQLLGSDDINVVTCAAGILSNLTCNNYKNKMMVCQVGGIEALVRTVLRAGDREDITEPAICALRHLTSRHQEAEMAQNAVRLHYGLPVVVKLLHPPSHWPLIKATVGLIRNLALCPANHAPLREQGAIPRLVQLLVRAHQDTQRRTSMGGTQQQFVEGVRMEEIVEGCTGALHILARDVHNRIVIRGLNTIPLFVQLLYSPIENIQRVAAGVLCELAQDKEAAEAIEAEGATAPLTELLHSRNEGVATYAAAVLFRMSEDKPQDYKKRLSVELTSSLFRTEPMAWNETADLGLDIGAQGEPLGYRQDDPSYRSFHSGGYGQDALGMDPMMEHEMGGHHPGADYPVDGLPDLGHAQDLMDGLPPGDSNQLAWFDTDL
Format: binding

Row | SMILES | IC50 [nM]
1 | CC(=O)N1CCC[C@]12CC=CCCCC1(CCCC=CCCCOC(=O)N3CC[C@@](C(=O)N[C@@H](Cc4ccsc4)C(=O)N[C@@H](Cc4csc5ccccc45)C(=O)N[C@@H](CCC(N)=O)C(N)=O)(C3)NC(=O)[C@H](CC(C)C)NC(=O)[C@H](Cc3ccccc3)NC(=O)[C@H](C)NC(=O)[C@H](C)NC(=O)[C@H](CCN(CC(=O)O)C(=O)CN3CCN(C)CC3)NC(=O)[C@H](CC(=O)O)NC1=O)NC(=O)[C@H](CC(C)(C)C)NC(=O)[C@H](CC(=O)O)NC2=O (stereo partly drawn) [I-2250, Ac-PL3-Asp-Npg-B5-Asp-[MePipAc]GAbu-Ala-Ala-Phe-Leu-PyrS2-3Thi-BztA-Gln-NH2] | 12
2 | CC(C)C[C@@H]1NC(=O)[C@H](Cc2ccccc2)NC(=O)[C@H](C)NC(=O)[C@H](C)NC(=O)[C@H](Cc2cccc(C(=O)O)c2)NC(=O)[C@H](CC(=O)O)NC(=O)C2(CCCC=CCCCOC(=O)N3CC[C@@](C(=O)N[C@@H](Cc4ccccc4Cl)C(=O)N[C@@H](Cc4csc5ccccc45)C(=O)N[C@@H](C)C(N)=O)(C3)NC1=O)CCCC=CC[C@]1(CCCN1C(=O)OC1CCCCC1)C(=O)N[C@@H](CC(=O)O)C(=O)N[C@@H](CC(C)(C)C)C(=O)N2 (stereo partly drawn) [I-2325, CO2Hex-PL3-Asp-Npg-B5-Asp-3COOHF-Ala-Ala-Phe-Leu-PyrS2-2C1F-BztA-Ala-NH2] | 1350
3 | CC(=O)N1CCC[C@]12CC=CCCCC1(CCCC=CCCCOC(=O)N3CC[C@](C(=O)N[C@@H](Cc4ccsc4)C(=O)N[C@@H](Cc4csc5ccccc45)C(=O)N[C@@H](CCC(N)=O)C(N)=O)(C3)NC(=O)[C@H](CC(N)=O)NC(=O)[C@H](Cc3ccccc3)NC(=O)[C@H](C)NC(=O)[C@H](C)NC(=O)[C@H](CC(=O)O)NC(=O)[C@H](CC(=O)O)NC1=O)NC(=O)[C@H](CC(C)(C)C)NC(=O)[C@H](CC(=O)O)NC2=O (stereo partly drawn) [I-2018, Ac-PL3-Asp-Npg-B5-Asp-Asp-Ala-Ala-Phe-Asn-PyrR2-3Thi-BztA-Gln-NH2] | 1680
4 | CC(=O)N1CCC[C@]12CCCCCCC1(CCCCCCCCOC(=O)N3CC[C@@](C(=O)N[C@@H](Cc4ccsc4)C(=O)N[C@@H](Cc4csc5ccccc45)C(=O)N[C@@H](CCC(N)=O)C(N)=O)(C3)NC(=O)[C@H](CC(C)C)NC(=O)[C@H](Cc3ccccc3)NC(=O)[C@H](C)NC(=O)[C@H](CCCCNC(C)C)NC(=O)[C@H](CCC(N)=O)NC(=O)[C@H](CC(=O)O)NC1=O)NC(=O)[C@H](CC1CCCCC1)NC(=O)[C@H](CC(N)=O)NC2=O (stereo partly drawn) [I-2452, Ac-PL3-Asn-Cha-B5-Asp-Gln-iPrLys-Ala-Phe-Leu-PyrS2-3Thi-BztA-Gln-NH2] | 7200
5 | CC(=O)N1CCC[C@]12CC=CCCCC1(CCCC=CCCCOC(=O)N3CC[C@@](C(=O)N[C@@H](Cc4ccccc4)C(=O)N[C@@H](Cc4csc5ccccc45)C(=O)N[C@@H](CCCCN)C(N)=O)(C3)NC(=O)[C@H](CC(C)C)NC(=O)[C@H](Cc3ccccc3)NC(=O)[C@H](C)NC(=O)[C@H](CCCCNC(C)C)NC(=O)[C@H](CCC(N)=O)NC(=O)[C@H](CC(=O)O)NC1=O)NC(=O)[C@H](CC(C)(C)C)NC(=O)[C@H](CC(N)=O)NC2=O (stereo partly drawn) [I-1643, Ac-PL3-Asn-Npg-B5-Asp-Gln-iPrLys-Ala-Phe-Leu-PyrS2-Phe-BztA-Lys-NH2] | 822
6 | CC(=O)N1CCC[C@]12CC=CCCCC1(CCCC=CCCCOC(=O)N3CC[C@@](C(=O)N[C@@H](Cc4ccsc4)C(=O)N[C@@H](Cc4csc5ccccc45)C(=O)N[C@@H](CCC(N)=O)C(N)=O)(C3)NC(=O)[C@H](CC(C)C)NC(=O)[C@H](Cc3ccccc3)NC(=O)[C@H](C)NC(=O)[C@H](C)NC(=O)[C@H](CC(=O)O)NC(=O)[C@H](CC(=O)O)NC1=O)NC(=O)[C@H](Cc1ccccc1)NC(=O)[C@H](CC(=O)O)NC2=O (stereo partly drawn) [I-1509, Ac-PL3-Asp-Phe-B5-Asp-Asp-Ala-Ala-Phe-Leu-PyrS2-3Thi-BztA-Gln-NH2] | 11
